# Results: patent publication US11414379B2, “SPAK kinase inhibitors as neuroprotective agents” (United States Government as represented by the Department …, priority 2018, dated 2022)
# Entries after “also recorded” stand apart in the source; their conditions may differ.
# Tests used:
# [1] = system: mouse model of ischemic stroke; test: Infarct volume and hemispheric swelling after transient MCAO; format: in vivo; conditions: 2.5 mg/kg; 24 hr reperfusion
# Description: Under an operating microscope, the left common carotid artery was exposed through a midline incision. […] The ECA was dissected further distally and permanently ligated. The internal carotid artery (ICA) was isolated and carefully separated from the adjacent vagus nerve. A 12 mm length of silicon-coated nylon filament (size 6-0, native diameter 0.11 mm; diameter with coating 0.21+/−0.02 mm; coating length 5-6 mm; Doccol Corporation, Sharon, Mass.) was introduced into the ECA lumen through a puncture. The silk suture around the ECA stump was tightened around the intraluminal nylon suture to prevent bleeding. The nylon suture was then gently advanced from the ECA to the ICA lumen until mild resistance was felt (˜9 mm). For reperfusion, the suture was withdrawn 50 min after MCAO to restore blood flow. Body temperature was maintained for the duration of the experiment between 36.5° C.-37° C. with a small animal heating pad (Kent Scientific).
# At 24 hours reperfusion, mice were anesthetized with 5% isoflurane and then decapitated. Coronal brain tissue slices (2 mm) were stained for 20 minutes at 37° C. with 1% 2,3,5-triphenyltetrazolium chloride monohydrate (TTC; Sigma, St Louis, Mo.) in PBS solution. […] The extent of hemispheric swelling was calculated using the following equation: swelling (% contralateral side)=[(volume of ipsilateral hemisphere−volume of contralateral hemisphere)/volume of contralateral hemisphere]×100 (Bhuiyan et al. (2017) Journal of cerebral blood flow and metabolism: official journal of the International Society of Cerebral Blood Flow and Metabolism 37: 2780-2794).
# Referring to FIG. 11A, an experimental design of ischemic stroke study is shown. Vehicle or ZT-1a is administered at 3 hrs and 8 hrs post-MCAO.
# Referring to FIG. 11B, representative images and quantification of infarct volume and hemispheric swelling in TTC-stained coronal sections of mouse brains 24 hrs post-MCAO are shown. Vehicle (DMSO, 2 ml/kg) or ZT-1a (2.5 or 5.0 mg/kg) were administered with an initial half dose at 3 hrs and the second half dose at 8 hr reperfusion via intra-peritoneal injection (i.p.). Data are mean±SD, n=6-12 per group (male). * p<0.05.
# [2] = system: mice; test: Adverse effects of WNK463 administered to mice; format: in vivo, mouse; conditions: 2.5 mg/kg dose
# [3] = system: all four WNK kinases; conditions: cited from earlier work
# [4] = system: normotensive and hypertensive rodent models; conditions: oral administration of 1-10 mg/kg; cited from earlier work
structure (smiles),measurement,setting,value
CC(C)(C)NC(=O)c1cncn1C1CCN(c2ccc(-c3nnc(C(F)(F)F)o3)cn2)CC1 [WNK463],effect on infarct volume and hemispheric swelling,[1],reduced neither infarct volume nor hemispheric swelling; also recorded: no neuroprotective effects
same,adverse effects,[2],ataxia and breathing difficulties
same,inhibition of WNK kinases in vitro,[3],nanomolar range
same,effect on blood pressure,[4],reduced blood pressure
